Laboratory results reported in patent US5629298A, “Adenosine as a positive inotrop in the compromised heart” (University of Massachusetts Medical Center, priority 1995, dated 1997).
Read-outs that look alike come from different tables or passages of the source.

Assays:
[1] = system: ventricular myocyte membrane adenylyl cyclase; assay: Adenylyl cyclase activity of ventricular myocyte membranes; format: biochemical, rat
Experimental: After a 3-4 hour incubation period, myocytes were harvested by placing the culture dishes on ice; aspirating and discarding the culture medium; scraping the attached cells into 1 ml of ice cold buffer (pH 7.4) containing 10 mM HEPES and 1 mM dithiothreitol (DTT); and transferring the mixture to a 40 ml centrifuge tube. The culture dishes were rinsed twice with buffer, and the rinses were added to the centrifuge tube. The myocytes were centrifuged at 45,000 x g for 45 minutes and the supernatant was discarded. The pellet was resuspended in 40 mM HEPES (pH 7.4) to yield 3.5-4 mg protein/ml and homogenized with a small clearance Dounce tissue grinder (8 strokes). The membranes were centrifugated as described above, resuspended (3-4 mg protein/ml) in 40 mM HEPES (pH 7.4), and assayed for adenylyl cyclase activity immediately or stored at -80° C. and assayed within 10 days.
The assay system used to measure adenylyl cyclase activity minimizes the formation of endogenous adenosine. The assay used was essentially as described by Romano et al. (supra). Myocyte membranes (15-25 μg protein) were incubated in 50 μl of a buffer containing 40 mM HEPES (pH 7.4), 5 mM MgCl2, 1 mM DTT, 5.5 mM KCl, 0.1 mM 2'-deoxy-cAMP (dcAMP), 0.1 mM 2'-deoxy ATP (dATP), 20 mM phosphoenolpyruvate, 2 units pyruvate kinase, 0.25 units adenosine deaminase, 1 mM ascorbic acid, 100 mM NaCl, 0.1 mM ethyleneglycol-bis (β-aminoethylether) N,N,N',N',-tetroaceticacid (EGTA), 10 μM guanosine 5'-triphosphate (GTP), and ~2×10^6 counts/minutes of [α-^32 P]dATP for 20 minutes at 30° C. The reaction was stopped by adding 40 μl of a solution containing 2% sodium dodecyl sulfate (SDS), 45 mM ATP, 1.3 mM cAMP, and [^3 H]dcAMP (~4000 count/min) and by boiling for 2 minutes.

[2] = system: cultured ventricular myocytes; assay: cAMP content of cultured ventricular myocytes (125I-cAMP RIA); format: cell-based, rat; details: Rattus norvegicus, Ventricular myocyte
Experimental: When myocytes were to be used for biochemical studies, each of the culture dishes was preincubated for 2 hours with 1 ml of MEM containing 33 μg of laminin in a 37° C. incubator gassed with 5% CO2 in room air. The laminin solution was removed prior to myocyte seeding. After seeding, the dishes were incubated for an additional 2 hours. The settling and short term culture procedures were performed to purify the myocytes so that >95% of the myocytes adhering to the dishes were rod shaped.
Cyclic AMP levels were determined in cultures of ventricular myocytes according to the following method. After the 2-hour incubation period, the MEM was aspirated and replaced with 2 ml of fresh MEM. Adenosine agonists, ISO, or adenosine antagonists were added to the medium bathing the cells at the concentrations and times indicated. The experiment was terminated by removing the medium from the dish and adding 200 μl of 1N HCl over the cultured myocyte surface. The dishes were then frozen in liquid N2 and stored at -70° C. or held on ice momentarily until extraction was initiated.
For assay, the contents of the dishes were transferred (using 1 ml of distilled/deionized H2 O) into microcentrifuge tubes. The extracts were heated for 1 hour at 57° C. and sonicated for 10 minutes. The extracts were then centrifugated at 14,000 x g for 15 minutes. The supernatant was removed, evaporated, reconstituted in 500 μl of 50 mM sodium acetate buffer and assayed for cAMP using an ^125 I-cAMP RIA kit (Amersham). The pellet was solubilized with 0.1N NaOH and protein determined. The cAMP values are reported in pmol cAMP/mg protein of the extract pellet (total cell protein). This cAMP assay procedure routinely provided recovery values in excess of 90%.

[3] = system: rat heart; assay: Isolated perfused heart, normoperfused or hypoperfused (mechanically depressed): LVP, +dP/dtmax, -dP/dtmax; details: for activation at 0.01 µM: Rattus norvegicus, 5 seconds; for activation at 0.01 µM / effect on the contractile variables (LVP, +dP/dtmax, -dP/dtmax): normoperfusion; for activation at 0.01 µM / increase in +dP/dtmax / increase in -dP/dtmax / increase in LVP: isoproterenol 10^-8 M; for increase in +dP/dtmax / increase in -dP/dtmax / increase in LVP: hypoperfusion (mechanically depressed heart); for increase in +dP/dtmax / increase in -dP/dtmax / increase in LVP / effect on the contractile variables (LVP, +dP/dtmax, -dP/dtmax): adenosine 2×10^-5 M, DPCPX 2×10^-7 M; for effect on the contractile variables (LVP, +dP/dtmax, -dP/dtmax): CGS-21680 2×10^-6 M
Experimental: Male Sprague-Dawley rats (500-550 g) were anesthetized with pentobarbital (40 mg/kg, i.p.) and treated with heparin (500 units, i.p.) for 15 minutes. Hearts were excised, rinsed in iced physiological saline ("PS") and perfused with PS (37° C.) via an aortic cannula at a constant rate of 18-20 ml/min. Perfusion pressure ranged from 50 to 60 mm Hg. The PS contained: NaCl, 118 mM; KCl, 4.7 mM; CaCl2, 2.5 mM; NaHCO3, 25 mM; KH2 PO4, 1.2 mM; MgSO4 1.2 mM; glucose 10 mM; and pyruvate 1.8 mM. The pH was maintained at 7.4 by gassing the PS with a 95% O2 /5% CO2 gas mixture. Platinum wire electrodes were inserted into the right atrium to allow pacing of the heart (300 contractions per minute) throughout the perfusion period. Developed left ventricular pressure (LVP) was measured with a saline-filled balloon inserted into the lumen of the left ventricle via the left atrium and attached by a polyethylene cannula to a pressure transducer. The pressure signal was electronically differentiated to obtain the maximum rates of left ventricular pressure development (+dP/dtmax) and relaxation (-dP/dtmax). Balloon volume was varied until the maximal obtainable dP/dt was attained. This optimal preload, ranging from 5 to 10 mm Hg, was maintained constant, permitting isovolumic contraction of the heart. Aortic perfusion pressure was monitored with another pressure transducer. All the LVP, +dP/dtmax, -dP/dtmax and aortic perfusion data were continually recorded on a multichannel polygraph. At the end of the experiment, the wet heart weights were determined; they ranged from 1.4 to 1.8 g.
After instrumentation, the hearts were normoperfused at 18-20 ml/min for 20 minutes, resulting in an aortic perfusion pressure of 50-60 mm Hg. Isoproterenol, adenosine, CGS-21680, DPCPX, atenolol, or a combination of these agents was administered for 1 to 2 minutes, via the aortic perfusion cannula, at 1/100th the perfusion flow rate, to achieve the stated PS concentrations. Isoproterenol was administered for only 5 seconds. To cause mechanical depression of the perfused hearts, the perfusion flow was lowered 5-6 ml/min. The resulting aortic perfusion pressure decreased to 20-30 mm Hg. The various agents either alone or in combination were administered via the PS to the hypoperfused hearts at 1/100th the perfusion flow rate, at the concentrations indicated.

[4] = 10 min, read-out: increase in myocyte cAMP

increase in adenylyl cyclase activity ([1]; ISO at 0.1 μM in the presence of 1 μM PIA) [%] | increase in adenylyl cyclase activity ([1]; ISO at 0.1 μM, in the absence of PIA) [%] | ISO-induced increase in adenylyl cyclase activity ([1]; ISO at 0.1 μM, with PIA and DPCPX at 0.1 μM) [%] | SMILES | activation at 0.1 µM ([2]; 1 min, ISO at 0.1 μM for 1 minutes, read-out: increase in myocyte cAMP over basal) [%] | activation at 1 µM ([2]; 1 min, ISO at 1 μM for 1 minutes, read-out: increase in myocyte cAMP over basal) [%] | activation at 0.01 µM ([3]; read-out: increase in +dP/dtmax) [%] | activation at 0.01 µM ([3]; read-out: increase in -dP/dtmax) [%] | activation at 0.01 µM ([3]; read-out: increase in LVP) [%] | increase in +dP/dtmax [3] [%] | increase in -dP/dtmax [3] [%] | increase in LVP [3] [%] | increase in cyclase activity ([1]; CGS-21680 in the presence of 0.1 μM DPCPX) [%] | EC50 ([1]; in the presence of 0.1 μM DPCPX, read-out: EC50 for increase of adenylyl cyclase) [nM] | adenylyl cyclase response ([1]; no DPCPX, activating at 1-10 μM, reducing this activation at 0.1-1 mM) | activation at 1 µM [2, 4] [%] | activation at 10 µM [2, 4] [%] | EC50 ([2]; 10 min, read-out: EC50 for increase in myocyte cAMP) [nM] | effect on the contractile variables (LVP, +dP/dtmax, -dP/dtmax) [3] | adenylyl cyclase activity above basal levels ([1]; adenosine at 0 to 1 mM, absence or presence of 1 μM DPCPX, ventricular myocyte membranes)
23 | 88 | 70 | CC(C)NCC(O)c1ccc(O)c(O)c1 (centres unmarked) [ISO, isoproterenol] | 90 | 138 | 167 | 216 | 119 | 114 | 225 | 171 | – | – | – | – | – | – | – | –
– | – | – | CCNC(=O)[C@H]1O[C@@H](n2cnc3c(N)nc(NCCc4ccc(CCC(=O)O)cc4)nc32)[C@H](O)[C@@H]1O [CGS-21680, 2-p-(2-carboxy-ethyl)phenethyl-amino-5'-N-ethylcarboxamido-adenosine] | – | – | – | – | – | – | – | – | 49 | 260 ± 80 | biphasic response | 77 | 174 | 1150 ± 370 | without affect | –
– | – | – | Nc1ncnc2c1ncn2[C@@H]1O[C@H](CO)[C@@H](O)[C@H]1O [adenosine] | – | – | – | – | – | 25 | 33 | 26 | – | – | – | – | – | – | did not affect | did not increase
